According to patent EP4631951A1, “SYNTHETIC VACCINES AGAINST POR[…]” (Max-Planck-Gesellschaft zur Förderung der Wissenschaften …, priority 2024, dated 2025):
Entries after “also recorded” stand apart in the source; their conditions may differ.

How the values were obtained:
human IgA antibodies = assay: Glycan microarray with human sera and saliva, IgA; assay type: binding; conditions: human saliva and serum
Source text: (§1) Here, human sera and saliva from P. gingivalis infected patients were used to screen antibodies against the synthetic glycan library 1-11 to determine whether LPS fragments are potential leads for vaccine development.
(§2) Samples were taken from a pool of patients at the Charit6 Zahnklinik (provided by Prof. Dr. Henrik Dommisch). The dental status of three groups of patients was defined as: healthy (20 patients, no clinical indications for CP), infected (16 patients, CP stage III or stage IV) and recovered from CP (six patients). Recovered patients were treated from CP stage III or stage IV at the Charit6 Zahnklinik by resective and regenerative surgery and execution of two to four professional dental cleanings per year.
(§3) The synthesized LPS fragments of P. gingivalis were immobilized at NHS-activated carboxyl-functionalized glass slides in triplicates (Figure 10 A, B). Additionally, a positive glycan control containing the α(1→2)-trirhamnose (5.06) was used in the assay, because most humans develop antibodies against this pathogen-associated glycan

human IgG antibodies = assay: Glycan microarray with human sera and saliva, IgG; assay type: binding; conditions: for IgG antibody binding: human saliva and human serum (blood); for IgG binding in CP saliva compared with healthy (and recovered) patients / IgG antibody binding in saliva, compared between glycans: human saliva; for IgG antibody binding in saliva, compared between glycans: MFI, Figures 12 and 13
Source text: as §1, §2, §3

C57BL/6NRj mice = assay: Glycan microarray analysis of antibody binding in sera of immunized mice; assay type: in vivo
Source text: The immunizations were approved by Landesamt für Gesundheit und Soziales Berlin, Germany (Approval ID: G 0329/18). 8 weeks old C57BL/6NRj mice (Janvier, Le Genest-Saint_Isle, France) were housed at Bundesinstitut für Risikobewertung, Berlin, Germany in groups of five animals in individually ventilated cages (Tecniplast, Hohenpeißenberg, Germany) under specific pathogen-free conditions. Housing and experiments were in accordance with institutional guidelines and with the regulations of the Federation of European Laboratory Animal Science Associations (FELASA). Mice were immunized subcutaneously (s.c.) with 1µg of glycoconjugate per injection. The glycoconjugates, together with Alum adjuvant, were diluted in sterile PBS to a final volume of 100 µL per dose. The animals were immunized on day 0 (primary immunization) and boosted on days 14, 28, and final boosting on day 196. Blood (max. 80µL) and saliva were collected every two weeks. The mice were fixed with on hand and a swap was used to collect the saliva and was afterwards centrifuged at 400 g for 5 min. After coagulation at room temperature, serum was separated by centrifugation at 2,000 g for 10 min. The sera and saliva were frozen at -20°C until further usage. [drawing 126]
Synthetic polysaccharides containing an amine linker as well as protein controls were immobilized on glass microarray slides. The slides were then quenched, blocked with 1% BSA-PBS, and stored at 4°C until use. […]
Slides were incubated for 1 hour at 37 °C in a humidification chamber, washed three times with PBST, rinsed with deionized water, and dried by centrifugation. Fluorescence signals were measured with a Genepix 4300A device (Molecular Devices, Sunnyvale, CA, USA).
The photomultiplier tube (PMT) voltage was adjusted to avoid oversaturation of the signals. Data were analyzed using GenePix Pro 7 software (Molecular Devices, Sunnyvale, CA, USA). […]

Compound | IgG antibody binding (human IgG antibodies) | IgG antibody binding in saliva, compared between glycans (human IgG antibodies) | also measured
C[C@@H]1O[C@@H](O[C@H]2[C@H](O[C@H]3[C@H](OCCCCCN)O[C@@H](C)[C@H](O)[C@H]3O)O[C@@H](C)[C@H](O)[C@H]2O)[C@H](O)[C@H](O)[C@H]1O [5.06, 5-Aminopentyl-a-(1→2)-L-trirhamnopyranoside, reference compound] | showed IgG antibody binding | – | IgA antibody binding (human IgA antibodies): significant binding of IgA; IgG antibodies in saliva (human IgG antibodies; healthy individuals compared with CP and recovered CP patients): also observed in healthy individuals, but significantly less than in chronical periodontitis patients and recovered chronical periodontitis patients
CC(=O)N[C@H]1[C@H](OCCCCCN)O[C@H](CO)[C@H](O)[C@@H]1O[C@@H]1O[C@@H](C)[C@H](O[C@H]2O[C@H](CO[C@H]3O[C@H](CO)[C@H](O)[C@H](O)[C@H]3O)[C@@H](O)[C@H](O)[C@H]2O)[C@@H](O)[C@H]1O [compound 1, 5-Aminopentyl-α-D-galactopyranosyl-(1→6)-α-D-glucopyranosyl-(1→4)-α-L-rhamnopyranosyl-(1→3)-2-acetamido-2-deoxy-B-D-galactopyranoside] | – | strongest IgG interaction observed in these studies; also recorded: highest amount of bound IgG antibodies in this study | IgM-responses (C57BL/6NRj mice; course of the experiment, response against the named glycan): remained at low levels; IgG binding in CP saliva compared with healthy (and recovered) patients (human IgG antibodies): significantly higher than in dental healthy patients; IgG in serum of patients infected with P. gingivalis (human IgG antibodies; human serum): binds
CC(=O)N[C@H]1[C@H](O[C@H]2[C@@H](O)[C@@H](CO)O[C@H](OCCCCCN)[C@@H]2O)O[C@H](CO)[C@H](O)[C@@H]1O[C@@H]1O[C@@H](C)[C@H](O)[C@@H](O)[C@H]1O [compound 2, 5-Aminopentyl-α-L-rhamnopyranosyl-(1→3)-2-acetamido-2-deoxy-β-D-galactopyranosyl-(1→3)-α-D-galactopyranoside] | show binding to IgG antibodies | higher amount of IgG antibody binding than to rhamnose monomer 9 | IgM levels (C57BL/6NRj mice; day 28, response against the named glycan): relatively high; IgM response peaked (C57BL/6NRj mice; response against the named glycan in mice immunized with its CRM197 conjugate (text names only the glycan)): 14 days; IgG binding in CP saliva compared with healthy (and recovered) patients (human IgG antibodies): stronger IgG binding observed for CP patients
CC(=O)N[C@H]1[C@H](O[C@H]2[C@@H](O)[C@@H](CO)O[C@H](OCCCCCN)[C@@H]2O)O[C@H](CO)[C@H](O)[C@@H]1O[C@@H]1O[C@@H](C)[C@H](O[C@H]2O[C@H](CO)[C@@H](O)[C@H](O)[C@H]2O)[C@@H](O)[C@H]1O [compound 3, 5-Amino-pentyl α-D-glucopyranosyl-(1→4)-α-L-rhamnopyranosyl-(1→3)-2-acetamido-2-deoxy-β-D-galactopyranosyl-(1→3)-α-D-galactopyranoside] | showed IgG antibody binding; also recorded: show binding to IgG antibodies | – | –
CC(=O)N[C@H]1[C@H](O[C@H]2[C@@H](O)[C@@H](CO)O[C@H](OC[C@H]3O[C@H](O[C@@H]4[C@@H](O)[C@@H](O)[C@H](OCCCCCN)O[C@H]4C)[C@H](O)[C@@H](O)[C@@H]3O)[C@@H]2O)O[C@H](CO)[C@H](O)[C@@H]1O [compound 4, 5-Aminopentyl-2-acetamido-2-deoxy-β-D-galactopyranosyl-(1→3)-α-D-galactopyranosyl-(1→6)-α-D-glucopyranosyl-(1→4)-α-L-rhamnopyranoside] | showed IgG antibody binding | higher IgG antibody binding than 5 tetrasaccharide | –
CC(=O)N[C@H]1[C@H](O[C@H]2[C@@H](O)[C@@H](CO)O[C@H](OC[C@H]3O[C@H](OCCCCCN)[C@H](O)[C@@H](O)[C@@H]3O)[C@@H]2O)O[C@H](CO)[C@H](O)[C@@H]1O[C@@H]1O[C@@H](C)[C@H](O)[C@@H](O)[C@H]1O [compound 5, 5-Aminopentyl-α-L-rhamnopyranosyl-(1→3)-2-acetamido-2-deoxy-β-D-galactopyranosyl-(1→3)-α-D-galactopyranosyl-(1→6)-α-D-glucopyranoside] | showed IgG antibody binding; also recorded: show binding to IgG antibodies | – | –
NCCCCCO[C@H]1O[C@H](CO[C@H]2O[C@H](CO)[C@H](O)[C@H](O)[C@H]2O)[C@@H](O)[C@H](O)[C@H]1O [compound 7] | showed IgG antibody binding; also recorded: show binding to IgG antibodies | bind significantly less IgG | IgA antibody binding (human IgA antibodies): significant binding of IgA
NCCCCCO[C@H]1O[C@H](CO)[C@H](O)[C@H](O)[C@H]1O [compound 11, 5-Aminopentyl α-D-galactopyranoside] | show binding to IgG antibodies | bind significantly less IgG | –
